Experimental data published in article PMC9951879, “Synthesis of New Shogaol Analogues as NRF2 Activators and Evaluation of Their Anti-Inflammatory Activity, Modes of Action and Metabolic Stability” (Antioxidants, 2023).

Assays:
[1] = Vybrant MTT cytotoxicity assay in BV-2 cells together with LPSEc; type: cell-based; conditions: mouse, BV-2 microglial cells, BV-2 cells plus LPSEc 200 ng/mL, read-out: cell viability
Protocol: The safe dose of the test compounds on murine hepatoma (Hepa1c1c-7) and mouse microglial cells (BV-2) was assessed by determining their cytotoxicity using Vybrant® MTT Cell Proliferation Assay Kit (Thermo Fisher Scientific, USA) following the manufacturer’s protocol. In the case of BV-2 cells, the cytotoxicity of the test compounds was assessed together with E. coli lipopolysaccharide (LPSEc), 200 ng/mL. The cell density was 5 × 10^5 cells/well (in a 96-well plate), and they were preincubated for 24 h. The test compounds (10, 5, 2.5, 1.25, and 0.625 μM) were then added to each well (in triplicate) and incubated for another 24 h. The solution’s absorbance was measured using Spectramax (Molecular Devices, San Jose, California, USA) M3 microplate reader. The cell viability was calculated using the following formula, and the results are presented as mean ± SD. Percent cell viability %=Atreated cells−Ablank /Auntreated cells−Ablank×100%

[2] = test system: GCLM; test: qPCR gene expression in Hepa1c1c-7 cells: GCLM; type: cell-based, mouse; conditions: 1 μM, 48 h, Hepa-1c1c7 cells
Protocol: Hepa1c1c-7 cells were treated with STCs (1 μM) for 48 h, and the total RNA was isolated using QIAzol®lysis reagent (Qiagen, Germany). Next, cDNA was synthesised using the ReverTra Ace® qPCR RT Master Mix Kit (Toyobo Research Reagents, Osaka, Japan). Quantitative PCR was performed using THUNDERBIRD^TM Next SYBR® qPCR Mix (Toyobo Research Reagents, Osaka, Japan) in CFX96 Touch Real-Time PCR Detection System (Bio-Rad Laboratories, San Jose, CA, USA). The genes tested and the respective primers (purchased from Integrated DNA Technologies, Coralville, IA, USA) used in the study are shown in Table 1. β-actin was used as a reference gene for the normalisation of target gene expression. The 2^−ΔΔCt method was used to measure the relative expression of target genes.

| SMILES | viability at 24 h, 2.5 µM ([1]; concentrations ≥ 2.5 μM) | GCLM gene expression foldchange (compared to control) [2] | viability at 24 h, 5 µM ([1]; concentrations ≥ 5 μM) |
| --- | --- | --- | --- |
| COc1cc(CCC(=O)/C=C/c2ccc([N+](=O)[O-])s2)ccc1O [STC8, (E)-5-(4-Hydroxy-3-methoxyphenyl)-1-(5-nitrothiophen-2-yl)pent-1-en-3-one] | < 90% | – | – |
| CCCCC/C=C/C(=O)CCc1ccc(O)c(OC)c1 [6-shogaol, reference compound] | – | 2.28 ± 0.10 | < 90% |
| COc1cc(CCC(=O)/C=C/c2cc(-c3ccccc3)cs2)ccc1O [STC5, (E)-5-(4-Hydroxy-3-methoxyphenyl)-1-(4-phenylthiophen-2-yl)pent-1-en-3-one] | – | 3.91 ± 0.09 | – |
